We go through two molecules from patent publication EP1909102A1, “Method for subgroup analysis in subjects having or being suspected of having inflammatory disease, use of anti-p38mapk antibodies, kits and their use” (c-a-i-r biosciences GmbH, priority 2006, dated 2008).

The target of one assay is p38MAPKα (Homo sapiens, UniProt Q16539). The following applies: read-out: IC50 for p38MAPKα; disclosed in WO 2004/110990; cited from earlier work.
Assay [1] has as its system patients with moderate to severe rheumatoid arthritis. The following applies: VeRA trial, cohort of 315 patients with moderate to severe rheumatoid arthritis; placebo effect about 30 %; cited from earlier work.
The test system is the same in assay [2]. Nature of the assay: VeRA trial of p38MAPK inhibitor in rheumatoid arthritis patients. It counts as in vivo. The following applies: according to a Monte Carlo simulation of the distribution of the effects. On the procedure: It has been claimed that p38MAPK inhibitors were of benefit in treating a large variety of disorders. […] In the VeRA trial, which was conducted to evaluate treatment effects in terms of characteristic manifestations of the disease such as tender joints, swollen joints, morning stiffness and disease activity in a cohort of 315 patients with moderate to severe rheumatoid arthritis, approximately 40 % of patients were responsive to treatment with the p38MAPK inhibitor VX-702, compared to a placebo effect of about 30 %, arguing for a biochemical net response rate of about 28 % according to a Monte Carlo simulation of the distribution of the effects. So far, no explanation for this evident dichotomy between responders and non-responders has been proposed yet.

p38MAPKα, sequence (Q16539 whole entry): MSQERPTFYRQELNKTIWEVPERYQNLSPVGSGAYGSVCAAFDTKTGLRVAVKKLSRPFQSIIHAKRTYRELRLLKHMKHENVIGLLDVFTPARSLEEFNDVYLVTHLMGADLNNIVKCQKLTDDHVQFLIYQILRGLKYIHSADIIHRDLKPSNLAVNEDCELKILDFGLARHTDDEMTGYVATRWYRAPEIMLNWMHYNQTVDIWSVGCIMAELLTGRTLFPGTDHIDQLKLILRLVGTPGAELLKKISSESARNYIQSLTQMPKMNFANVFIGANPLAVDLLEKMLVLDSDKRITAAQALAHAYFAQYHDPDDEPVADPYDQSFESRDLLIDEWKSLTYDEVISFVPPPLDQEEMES

As usually defined, the IC50 is the concentration needed to halve the response being measured. `Fc1ccc(-c2nc3occn3c2-c2ccnc(NC3CC3)n2)cc1` [4-(4-fluorophenyl)-5-(2-[cyclopropyl-amino]-pyrimidyl-4-yl)-imidazooxazole]: the 50% inhibitory concentration (IC50) at p38MAPKα is 0.44 nM. On to `NC(=O)c1ccc(N(C(N)=O)c2c(F)cccc2F)nc1-c1ccc(F)cc1F` [VX-702], for which the “patients responsive to treatment” value in assay [1] is “approximately 40%”. Besides, in assay [2], the “biochemical net response rate” value is on record as “about 28%”.
